This note sets out measurements from PMC10816808, “Enhancement of the Antitumor and Antimetastatic Effect of Topotecan and Normalization of Blood Counts in Mice with Lewis Carcinoma by Tdp1 Inhibitors—New Usnic Acid Derivatives” (International Journal of Molecular Sciences, 2024).

Data set [1] is described as follows: Leukocyte and erythrocyte counts in peripheral blood of mice with Krebs-2 carcinoma. It is filed as in vivo. On the procedure: We also counted leukocytes and erythrocytes in mice with Krebs-2 carcinoma. […] An increase in white blood cell count in the peripheral blood is associated with the inflammatory process that develops during tumor formation and growth. […] It should be noted that topotecan at the dose of 1 mg/kg was not hemotoxic and partly normalized the concentrations of leukocytes and erythrocytes, apparently due to its antitumor effect. Treatment of mice with only compound 7, regardless of the route of administration, reduced the number of leukocytes somewhat more effectively than the drugs listed above, but the decrease was significant only in comparison with the control without treatment.
White and red blood cell counts were determined using a Goryaev chamber using a BIOSCOP-1 microscope (LOMO-MA, St. Petersburg, Russia).

Data set [2] in a line: Toxic effect in mice with Krebs-2 carcinoma (body weight, liver and spleen indices). It is filed as in vivo. The settings on record: for Weight of an individual with ascites / Weight of an individual without ascites: individual animals, mice with Krebs-2; for organ index, Liver (group mean) / organ index, Spleen (group mean): mice with Krebs-2 carcinoma. The source says: (§1) We also studied the effect of topotecan, compound 7, and their combinations on changes in body weight of mice with LLC from days 1 to 18 after tumor transplantation and of mice with Krebs-2 carcinoma from days 1 to 8.
(§2) In addition, at the end of the experiments, we removed and weighed the liver and spleen, and calculated the liver and spleen indices.
(§3) The toxic effects of the substances were inferred from the changes in body weight during the experiment (the mice with LLC were weighed on days 1, 3, 5, 7, 10, 12, 14, 16, and 18 after grafting) and the liver and spleen weight indices at the end of the experiment.

Data set [3] relates to Krebs-2 ascitic carcinoma. The data set is described as follows: Antitumor effect in the Krebs-2 ascitic carcinoma model. It is filed as in vivo, mice. The settings on record: for average ascites weight: C57BL mice with Krebs-2, single dose on day 4; for average ascites weight / Average number of tumor cells in ascites: mean ± SD; for Ascites weight / Total number of tumor cells / Tumor cell concentration: individual animals; for Ascites weight / Total number of tumor cells / Tumor cell concentration / Average number of tumor cells in ascites: mice with Krebs-2. From the text: The Krebs-2 cancer cell line was obtained from the cell depository of the Institute of Cytology and Genetics SB RAS (Novosibirsk, Russia), and is maintained in mice as a transplanted tumor. Krebs-2 carcinoma is nonspecific to the different genetic constitutions of mice and is weakly immunogenic for mice of all strains. The biological source of Krebs-2 is the epithelial cells of the abdominal wall of the mouse. With intraperitoneal transplantation of tumor cells, an ascitic form is formed.
The effect of the drugs was assessed by the weight of ascites and the number of tumor cells in it.
Strain-nonspecific Krebs-2 ascitic carcinoma was grafted to C57BL mice. Tumor cells were suspended in 0.9% NaCl prior to grafting and injected intraperitoneally (2 million cells per mouse, in 0.2 mL). An ascitic tumor develops after intraperitoneal inoculation, has low immunogenicity, and produces no metastasis during the experiment at the used dose of tumor cells.
The mice were also divided into groups of 6–7 individuals. Treatment was carried out once on the 4th day after tumor transplantation: • - Group 1—Intact control—mice of this group were inoculated with a tumor, receiving 0.2 mL of saline intraperitoneally; • - Group 2—DMSO-Tween-80—mice were injected once intragastrically with a probe 200 μL of a solution containing saline, Tween-80 (10%), and DMSO (15%); • - Group 3—DMSO-Tween-80—mice were injected once intraperitoneally with a solvent for 7; • - Group 4—Tpc (aqueous solution)—mice were injected once intraperitoneally with 200 µL of Tpc at a single dose of 1 mg/kg; • - Group 5—Tpc + 7 i/g—mice received Tpc once as described for groups 3 and 7 in the form of 200 µL of suspension in Tween-80-DMSO once intragastrically at a dose of 50 mg/kg; • - Group 6—Tpc + 7 i/p—mice were injected with topotecan once as described for groups 3 and 7 in the form of 200 µL of suspension Tween-80-DMSO once intraperitoneally at a dose of 50 mg/kg; • - Group 7—7 i/g—mice were injected with 7 as described for group 5; • - Group 8—7 i/p—mice were injected with 7 as described for group 6.
The ascitic tumor weight and the cancer cell concentration in the ascitic fluid (as counted with a Goryaev chamber) were evaluated at the end of the experiment to estimate the effects of the substances. To prepare the samples for cell counting with a Goryaev chamber, 10 μL of the ascitic fluid was combined with 400 μL of saline (a 40-fold dilution). Cells were counted in five large squares, each divided into 16 small squares (80 squares in total) at a low magnification.

Data set [4] is described as follows: Toxic effect in mice with LLC (body weight, liver and spleen indices).
Excerpt: as §1, §2, §3

[5] abbreviates: Tpc 1 mg/kg i/p and/or 7 50 mg/kg i/p.
The mark [6] stands for this setting: 7 50 mg/kg i/g, alone or with Tpc 1 mg/kg i/p.

Where “and” joins values, the source holds several entries; their conditions need not be identical. Equal entries are not always repeated.

`CC[C@@]1(O)C(=O)OCc2c1cc1n(c2=O)Cc2cc3c(CN(C)C)c(O)ccc3nc2-1` [Tpc, topotecan]: in data set [1] (setting [5]), the Concentration of erythrocytes in peripheral blood was 7.6 ± 0.4 million/µL and the Concentration of leukocytes in peripheral blood was 11.2 ± 0.7 thousand/µL. Also, in data set [1] (dose of 1 mg/kg), the “hemotoxicity (in words)” value is given as “not hemotoxic”. Moreover, in data set [2] (setting [5]), the “Weight of an individual with ascites” value is 21 g and 23.5 g and 23.4 g and 21.2 g and 22.9 g and 21.4 g and 21.9 g; the “Weight of an individual without ascites” value is 18.7 g and 17.9 g and 19.9 g and 19.2 g and 20 g and 19 g and 19.5 g. In data set [2] (Topotecan and/or 7 i/p), the “organ index, Liver (group mean)” value was determined as 4.8±0.6% and the “organ index, Spleen (group mean)” value is 1.3±0.2%. In addition, in data set [3] (setting [5]), the average ascites weight is listed as 3±0,9 g; the Ascites weight is 2.3 g and 5.6 g and 3.5 g and 2 g and 2.9 g and 2.4 g; the “Total number of tumor cells” value is 218.5 million and 459.2 million and 266 million and 182 million and 188.5 million and 120 million and 148.8 million; the Tumor cell concentration is 95 million/ml and 82 million/ml and 76 million/ml and 91 million/ml and 65 million/ml and 50 million/ml and 62 million/ml. In data set [3] (setting [5]), the “Average number of tumor cells in ascites” value is listed as 226,1±78 million. Also, the “tolerability / acute toxic effect (in words)” value in data set [4] (mice with LLC and mice with Krebs-2 carcinoma) is “well tolerated and did not cause acute toxic effect”. In data set [4] (mouse, in vivo), the “changes in body weight of mice (in words)” value is “tendency towards an increase in the weight of animals”; the “organ index, Liver (group mean)” value is on record as 5.6±0.7%; the “organ index, Spleen (group mean)” value is 1.19±0.04%.

In data set [1] (setting [6]), `C/C(NCCCc1cc(C(C)(C)C)c(O)c(C(C)(C)C)c1)=C1\C(=O)C=C2Oc3c(-c4csc(N/N=C/c5ccc(Br)cc5)n4)c(O)c(C)c(O)c3[C@@]2(C)C1=O` [Compound 7, (4E)-10-{2-[(E)-2-[(4-bromophenyl)methylidene]hydrazin-1-yl]-1,3-thiazole-4-yl}-4-(1-{[3-(3,5-di-tret-butyl-4-hydroxyhenyl)propyl]amino}ethylidene)-11,13-dihydroxy-2,12-dimethyl-8-oxatricyclo [7.4.0.02,7]trideca-1(13),6,9,11-tetraen-3,5-dione] came in with a Concentration of erythrocytes in peripheral blood of 7.2 ± 0.6 million/µL and a Concentration of leukocytes in peripheral blood of 10.7 ± 0.8 thousand/µL. In data set [1] (setting [5]), this compound came in with a Concentration of erythrocytes in peripheral blood of 7 ± 0.6 million/µL and a Concentration of leukocytes in peripheral blood of 10.1 ± 0.9 thousand/µL. Also, in data set [2] (setting [6]), the “Weight of an individual with ascites” value was 24.5 g and 22.7 g and 21 g and 23.3 g; the “Weight of an individual without ascites” value was 19.9 g and 16.5 g and 16.4 g and 19.4 g and 18.8 g. Besides, in data set [2] (setting [5]), the “Weight of an individual with ascites” value is 21.5 g and 22.2 g and 21.3 g and 22.1 g and 23.4 g and 24.9 g; the “Weight of an individual without ascites” value is 18.4 g and 19.8 g and 16.8 g and 16.6 g and 19.4 g and 18.2 g and 18.7 g. Further, in data set [2] (7 i/g, alone or with Topotecan), the “organ index, Liver (group mean)” value amounted to 4.4±0.5% and the “organ index, Spleen (group mean)” value is given as 1.2±0.1%. For the same compound, in data set [2] (Topotecan and/or 7 i/p), the “organ index, Liver (group mean)” value is 4.1±0.3% and the “organ index, Spleen (group mean)” value stood at 1.0±0.1%. For the same compound, in data set [3] (setting [6]), the average ascites weight is on record as 5±0,5 g; the Ascites weight is 4.6 g and 6.2 g and 5.1 g and 4.5 g; the “Total number of tumor cells” value is 372.6 million and 403 million and 230 million and 209.1 million and 162 million; the Tumor cell concentration was 81 million/ml and 65 million/ml and 50 million/ml and 41 million/ml and 36 million/ml. Moreover, the “Average number of tumor cells in ascites” value in data set [3] (setting [6]) is 275,3±90 million. In data set [3] (setting [5]), the average ascites weight is 4,1±1,4 g; the Ascites weight is 3.1 g and 2.4 g and 4.5 g and 5.5 g and 2.1 g and 5.2 g and 6.2 g; the “Total number of tumor cells” value was 204.6 million and 105.6 million and 234 million and 165 million and 44.1 million and 530.4 million and 576.6 million; the Tumor cell concentration was 66 million/ml and 44 million/ml and 52 million/ml and 30 million/ml and 21 million/ml and 102 million/ml and 93 million/ml. The “Average number of tumor cells in ascites” value in data set [3] (setting [5]) is 265,8±164,4 million. For the same compound, in data set [4] (mouse, in vivo), the “changes in body weight of mice (in words)” value is listed as “tendency towards an increase in the weight of animals”; the “organ index, Spleen (group mean)” value is listed as 1.3±0.2%; the “tolerability / acute toxic effect (in words)” value is “well tolerated and did not cause acute toxic effect”.
